Data from patent publication US20220325173A1, “RNA FLUORESCENT PROBE FOR RAPIDLY DISTINGUISHING CANCER TISSUE FROM NORMAL TISSUE BASED ON NUCLEOLAR MORPHOLOGICAL CHANGES” (SHANDONG UNIVERSITY, priority 2020, published 2022).

How the values were obtained:
[1] = system: cytoplasmic RNA and nucleoli in SiHa cells; experiment: Staining live SiHa cells with CAPY-AP, confocal laser scanning microscopy; format: cell-based; details: 5 μM CAPY-AP, 30 min, 488 nm laser, green channel 500-600 nm
Experimental: Obtaining method: the SiHa cells are incubated with CAPY-AP for 30 min, and then the cells are irradiated with a 488 nm laser under a confocal laser scanning microscope to obtain micrographs. FIG. 1a is the image of green channel at 500-600 nm from CAPY-AP excited by the 488 nm laser. FIG. 1B is a differential interference contrast (DIC) micrograph scanned by a bright field laser. FIG. 1c is the merge image of FIG. 1a and FIG. 1b.
SiHa cells were cultured in adherent conditions in a culture media containing 10% fetal bovine serum and incubated in a 37° C. and 5% CO2 saturated humidity incubator. The culture media was replaced every 2-3 days for passage once. […]
First, DMSO solution of a 5 mM CAPY-AP was prepared as a stock solution. […] After staining, the cover glass with cells was taken out, excess probes were washed off, the cover glass with the cell growth side facing down covers a glass slide, and the staining locations, fluorescence distribution and brightness changes of the cells were observed under a confocal laser scanning microscope (the cells were irradiated with a 488 nm laser).

[2] = system: cytoplasmic RNA and nucleoli in human mammary cancer tissue and normal mammary tissue; experiment: Fluorescence staining of frozen sections of human mammary cancer tissue and its adjacent normal tissue
Excerpt: Obtaining method: after the frozen sections of human mammary cancer tissue and its adjacent normal tissue are stained with CAPY-AP and Hoechst 33342, the tissue is irradiated with 488 nm and 405 nm lasers respectively under the confocal laser scanning microscope, and superposition images of two channels (blue channel: 420-450 nm, green channel: 500-600 nm) are obtained. The frozen sections of the same tissue are stained with H&E to obtain H&E staining images. Amongst, the enlarged images come from two box regions of fluorescent staining images of mammary cancer tissue.
(§1) The frozen sections of the mammary cancer tissue and its adjacent normal tissue from intraoperative pathological samples of breast cancer patients (Pathology No. 57977.18) were obtained from the department of pathology, Qilu Hospital of Shandong University. In order to stain, the frozen sections were immersed into a 10% EtOH PBS buffer solution with a 10 μM CAPY-AP and a 10 μM Hoechst 33342 for 10 min, and then observed under a confocal laser scanning microscope (the tissue was irradiated with 488 nm and 405 nm lasers respectively) to obtain fluorescence images. The fluorescence images were compared with the corresponding H&E images.
as §1, with “60551.18)” for “57977.18)”
as §1, with “61864.18)” for “57977.18)”

RNA in SiHa cells = experiment: RNase digestion assay: staining of RNase-treated fixed SiHa cells with CAPY-AP; format: cell-based; details: RNase 25 μg/mL 2 hours, then 5 μM CAPY-AP 30 min, 488 nm laser, green channel 500-600 nm
Excerpt: Obtaining method: the fixed SiHa cells treated with RNase and then stained with CAPY-AP. Under the confocal laser scanning microscope, the cells are irradiated with the 488 nm laser to obtain micrographs. FIG. 2a is the image of a green channel at 500-600 nm from CAPY-AP excited by the 488 nm laser. FIG. 2b is a differential interference contrast (DIC) micrograph scanned by a bright field laser. FIG. 2c is the merge image of FIG. 2a and FIG. 2b.
Preparation of fixed cells: first, the cover glass covered with the SiHa cells prepared in Example 2 was immersed in a 4% paraformaldehyde solution for 30 min, and then 0.5%
Triton X-100 was used for permeation at room temperature for 2 min to obtain the fixed cells.
A group of the above fixed cells was taken out and digested in an incubator for 2 hours after RNase with a 25 μg/mL concentration was added, then washed with PBS 3 times and stained with a 5 μM CAPY-AP in a CO2 incubator for 30 min. The cover glass with stained cells was taken out, excess dyes were washed off, the cover glass with a cell growth side facing down covers a glass slide, and the staining locations, fluorescence distribution and brightness changes of the cells were observed under a confocal laser scanning microscope (the cells were irradiated with a 488 nm laser) and recorded.

[3] = 10 μM CAPY-AP with 10 μM Hoechst 33342, 10% EtOH PBS, 10 min, 488 nm and 405 nm lasers

## CCn1c2ccccc2c2cc(/C=C/c3cc[n+](CCCN)cc3)ccc21 [CAPY-AP, (E)-1-(3-aminopropyl)-4-(2-(9-ethyl-9H-carbazol-3-yl)vinyl)pyridine-1-ium dibromide]
[1]
  staining locations and fluorescence distribution in live SiHa cells (FIG. 1): obvious green light distribution in cytoplasmic and nucleolar areas
[2]; [3]
  fluorescence distribution in frozen sections, Pathology No. 57977.18 (FIG. 3): obvious green light distribution in cytoplasmic and nucleolar areas, while no fluorescence exists in extracellular matrices
  imaging of cytoplasmic RNA and nucleoli in frozen sections, Pathology No. 60551.18 (FIG. 4): can specifically image the cytoplasmic RNA and nucleoli in the frozen sections of the human mammary pathological tissue
  imaging of cytoplasmic RNA and nucleoli in frozen sections, Pathology No. 61864.18 (FIG. 5): can specifically image the cytoplasmic RNA and nucleoli in the frozen sections of the human mammary pathological tissue
[2]; three pathology samples together, CAPY-AP and Hoechst 33342
  imaging of cytoplasmic RNA and nucleoli in frozen sections, summary of FIG. 3, FIG. 4 and FIG. 5: can specifically image the cytoplasmic RNA and nucleoli in frozen sections of human mammary pathological tissue
RNA in SiHa cells
  fluorescence of fixed SiHa cells after RNase treatment (FIG. 2): fluorescence in the nucleoli and cytoplasm is almost invisible
